Common to all, as to type: cell-based, human
One assay concerns YAP. Nature of the assay: Nuclear YAP in HUVECs attached to collagen peptides. On the procedure: (§1) Whole cell and CAM tissue lysates were collected in RIPA buffer supplemented with 1× protease inhibitor and 1× phosphatase inhibitor and were run on polyacrylamide gels using denaturing conditions. Prior to loading the gels, 6× sample buffer was added to each of the lysates (final concentration 1×) and boiled for five minutes. Twenty to 50 μg of total protein were loaded into each lane. […] Gels were run at 60 volts (v) until the dye front passed through the stacking gel, and then the voltage was increased to 100V for the remainder of the separation. Precision Plus protein standards (Bio-Rad) were used to visualize migration. Protein was transferred to nitrocellulose membranes using a wet tank system and blocked for 1 h using 10% non-fat dried milk in tris-buffered saline with 0.01% Tween-20 (TBS-T). […] Membranes were washed 3 times in TBS-T for five minutes. Blots were then incubated with HRP conjugated secondary antibodies (1:15000) in 1% non-fat milk in TBS-T for 1 h. Membranes were washed a second time as indicated above and exposed to chemiluminecent substrate for three minutes prior to exposure to autoradiography film in a dark room. Western blot bands were quantified using Image J software based on pixel intensity.

A further assay concerns HRMVEC. Nature of the assay: Cell proliferation assay, HRMVEC. To be noted: peptide 100 ng/ml, 24 hours; FIG. 8D. On the procedure: (§2) HUVECs (WT, shYAP1 or control transfected) or HRMVECs were plated at 2,000 cells per well with complete EGM-2 media containing 2.0% FBS in the absence or presence of P-1, P-2 or P-C (100 ng/ml) and allowed to grow for 24 hours. Cell growth was monitored using a BrdU or MMT assay kits according to manufacturer's instructions. All assays were completed at least three times in triplicate wells.

Another assay relates to P38MAPK. Nature of the assay: P38MAPK phosphorylation in HRMVEC attached to collagen peptides, Western blot. To be noted: cells attached to immobilized peptide; FIG. 6E. As for the experimental part: Endothelial cells (HUVECs or HRMVECs) were incubated in serum free media with 1 mM MgCl2, 0.2 mM MnCl2 in the presence of a Src inhibitor, PP2, (10 μM) a P38MAPK inhibitor, SB202190 (10 μM) or vehicle only (DMSO) for 10 min at 37° C. Treated cells were then seeded on to immobilized P-1 and P-2 and lysates were collected at 15 min.
as §1, with “Membranes were washed a second time as indicated above and exposed to chemiluminecent substrate for three minutes prior to exposure to autoradiography film in a dark room.” left out
(Immunoblotting shows a protein as a band on a membrane.)

In a further assay the test system is Src. Nature of the assay: Src phosphorylation in endothelial cells attached to collagen peptides, Western blot. To be noted: HUVEC; FIG. 7D. As for the experimental part:
as §1

Assay [1] concerns endothelial cells (HUVECs). Nature of the assay: Actin stress fiber formation in HUVECs attached to collagen peptides (F-actin stain). To be noted: FIG. 7G. On the procedure: CAMs examined for accumulation of granulation tissue were harvested, fixed in 4% PFA and paraffin embedded and sectioned (4 μm) and stained with Giemsa. CAM tissues analyzed via immunofluorescence were harvested, embedded with OCT, snap frozen and sectioned ([…]). Frozen sections were fixed in 50% methanol/50% acetone, air dried and blocked with 2.5% BSA for 1 h at 37° C. For expression of the XL313 and XL166 epitopes as well as monocyte/macrophages, FGF-2 stimulated CAM tissues were stained with Mabs XL313, XL166 (50 μg/ml) or KUL1 (1:250) and then incubated with Alexa-488 labeled secondary antibodies (1:2000 dilution). […] Using a similar strategy, sections of RGD peptide-treated CAM tissues were analyzed for phosphorylated-P38MAPK in angiogenic vessels by co-incubation of anti-phospho-P38MAPK (1:50) and anti-vWf (1:500) antibodies. […]
Because both RGD containing peptides bind αvβ3 coupled with the differential effect of these peptides on angiogenesis and inflammation, it was determined whether the RGD peptides differentially altered αvβ3-mediated signaling. […] Therefore, the differential phosphorylation of these protein kinases following the early mechanical-mediated interactions with the RGD containing collagen peptides was assessed. […]

Another assay concerns HUVEC. Description: Cell proliferation assay, HUVEC. Particulars: peptide 100 ng/ml, 24 hours; FIG. 8C. On the procedure: as §2

Consider QGPRGDKGE [Mab P-2], for which the “nuclear localized YAP (immunofluorescence), P-2 as compared to P-1” value with YAP (15 minutes after binding, no growth factor, FIG. 8A) is reported as “enhanced level of nuclear localized YAP”. Further, the “increase of nuclear YAP levels (Western blot), P-2 as compared to P-1” value in the assay with YAP (nuclear fractions of HUVEC lysates, FIG. 8B) is “approximately 2 fold”. The “HRMVEC growth with soluble peptide” value with HRMVEC was “significantly (P<0.05) enhanced endothelial cell growth”. In addition, the “phosphorylation of P38MAPK in HRMVEC, P-2 as compared to P-1” value with P38MAPK is reported as “enhanced phosphorylation of P38MAPK”. In the assay with Src, the “enhancement of Src phosphorylation, P-2 as compared to P-1” value was approximately 2 fold. Also, the “actin stress fiber formation, P-2 as compared to P-1” value in assay [1] is “accelerated actin stress fiber formation”. Moreover, in the assay on HUVEC, the “HUVEC growth with soluble peptide” value is given as “significantly (P<0.05) enhanced endothelial cell growth”.
